Measured values published in patent publication US11535630B2, “Apelin receptor (APJ) agonists and uses thereof” (Research Triangle Institute, priority 2015, dated 2022).

These compounds were tested against T1, apelin receptor (APJ) (Homo sapiens, UniProt P35414) (assay: In vitro apelin agonist activity (methods of Giddings et al., Apelin-13 as positive control)). Conditions: in vitro apelin agonist activity, methods of Giddings et al., Apelin-13 as positive control; read-out: EC50 (nM) Ave.
T1 sequence (P35414 1-380): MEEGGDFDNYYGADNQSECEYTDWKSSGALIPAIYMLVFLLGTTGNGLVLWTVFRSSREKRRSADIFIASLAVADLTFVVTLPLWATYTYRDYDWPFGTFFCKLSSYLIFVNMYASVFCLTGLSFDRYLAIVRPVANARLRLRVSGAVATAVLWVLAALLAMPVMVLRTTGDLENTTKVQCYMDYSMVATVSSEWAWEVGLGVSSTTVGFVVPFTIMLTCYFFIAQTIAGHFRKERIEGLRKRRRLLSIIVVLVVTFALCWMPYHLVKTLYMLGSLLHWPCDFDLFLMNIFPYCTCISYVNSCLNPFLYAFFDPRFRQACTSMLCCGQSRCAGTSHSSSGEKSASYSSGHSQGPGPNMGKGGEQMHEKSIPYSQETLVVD
Type: cell-based
Text: Characterization of the Apelin Agonist Activity of the Compounds
1:39-47, the contents of which are hereby incorporated by reference in its entirety. Using the methods described in Giddings et al. and Apelin-13 as a positive control.

SMILES | EC50
CC(F)(F)c1ccccc1-c1cc(C(=O)N[C@@H](CCN2CCCC(F)(F)C2)CC(=O)Nc2nccs2)nn1C1CCCC1 [compound 428, (3S)-3-({1-cyclopentyl-5-[2-(1,1-difluoroethyl)phenyl]-1H-pyrazol-3-yl}formamido)-5-(3,3-difluoropiperidin-1-yl)-N-(1,3-thiazol-2-yl)pentanamide] | 7.5 nM
CCC(CC)n1nc(C(=O)N(CC)[C@@H](CCN2CCCCC2)CC(=O)NC2CCC2)cc1-c1c(OC)cccc1OC [compound 346, (3S)-N-cyclobutyl-3-{1-[5-(2,6-dimethoxyphenyl)-1-(pentan-3-yl)-1H-pyrazol-3-yl]-N-ethylformamido}-5-(piperidin-1-yl)pentanamide] | > 10000 nM
O=C(C[C@H](CCN1CCC(F)(F)C1)NC(=O)c1cc(-c2ccccc2C(F)(F)F)n(C2CCCC2)n1)NC1CCC1 [compound 480, (3S)-N-cyclobutyl-3-({1-cyclopentyl-5-[2-(trifluoromethyl)phenyl]-1H-pyrazol-3-yl}formamido)-5-(3,3-difluoropyrrolidin-1-yl)pentanamide] | 2.76 nM
CC(F)(F)c1ccccc1-c1cc(C(=O)N[C@@H](CCN2CCC(F)(F)C2)CC(=O)O)nn1C1CCCC1 [compound 537, (3S)-3-({1-cyclopentyl-5-[2-(1,1-difluoroethyl)phenyl]-1H-pyrazol-3-yl}formamido)-5-(3,3-difluoropyrrolidin-1-yl)pentanoic acid] | 16 nM
O=C(C[C@H](CCN1CCCCC1)NC(=O)c1cc(-c2ccccc2C2CC2)n(C2CCCC2)n1)NC1CCC1 [compound 413, (3S)-N-cyclobutyl-3-{[1-cyclopentyl-5-(2-cyclopropylphenyl)-1H-pyrazol-3-yl]formamido}-5-(piperidin-1-yl)pentanamide] | 49 nM
O=C(C[C@H](CCN1CCC(F)(F)CC1)NC(=O)c1cc(-c2ccccc2C(F)(F)F)n(C2CCCC2)n1)Nc1nccs1 [compound 430, (3S)-3-({1-cyclopentyl-5-[2-(trifluoromethyl)phenyl]-1H-pyrazol-3-yl}formamido)-5-(4,4-difluoropiperidin-1-yl)-N-(1,3-thiazol-2-yl)pentanamide] | 17.5 nM
COc1cccc(OC)c1-c1cc(C(=O)N[C@@H](CCN2CCCCC2)CC(=O)NC2CCC2)nn1C1CCCCC1C (stereo partly drawn) [compound 356, (3S)-N-cyclobutyl-3-{[5-(2,6-dimethoxyphenyl)-1-(2-methylcyclohexyl)-1H-pyrazol-3-yl]formamido}-5-(piperidin-1-yl)pentanamide] | > 10000 nM
O=C(C[C@H](CCN1CCCCC12COC2)NC(=O)c1cc(-c2ccccc2C(F)(F)F)n(C2CCCC2)n1)NC1CCC1 [compound 522] | 64 nM
CCN(CC)CC[C@@H](CC(=O)OC(C)(C)C)NC(=O)c1cc(-c2c(OC)cccc2OC)n(C2CCCC2)n1 [compound 305, tert-butyl (3S)-3-{[1-cyclopentyl-5-(2,6-dimethoxyphenyl)-1H-pyrazol-3-yl]formamido}-5-(diethylamino)pentanoate] | > 10000 nM
O=C(C[C@H](CCN1CCCCC1)NC(=O)c1cc(-c2c(OCC(F)(F)F)cccc2OCC(F)(F)F)n(C2CCCC2)n1)NC1CCC1 [compound 353] | > 10000 nM
O=C(O)C[C@H](CCN1CCCC[C@@H]1C(F)(F)F)NC(=O)c1cc(-c2ccccc2C(F)(F)F)n(C2CCCC2)n1 [compound 488, (3S)-3-({1-cyclopentyl-5-[2-(trifluoromethyl)phenyl]-1H-pyrazol-3-yl}formamido)-5-[(2R)-2-(trifluoromethyl)piperidin-1-yl]pentanoic acid] | 1340 nM
O=C(O)C[C@H](CN1CCCC(F)(F)C1)NC(=O)c1cc(-c2ccccc2C(F)(F)F)n(C2CCCC2)n1 [compound 519, (3R)-3-({1-cyclopentyl-5-[2-(trifluoromethyl)phenyl]-1H-pyrazol-3-yl]formamido)-4-(3,3-difluoropiperidin-1-yl)butanoic acid] | > 10000 nM
COc1cccc(OC)c1-c1cc(C(=O)N[C@@H](CCc2ccccc2)CC(=O)Nc2nccs2)nn1C1CCCC1 [compound 380, (3S)-3-{[1-cyclopentyl-5-(2,6-dimethoxyphenyl)-1H-pyrazol-3-yl]formamido}-5-phenyl-N-(1,3-thiazol-2-yl)pentanamide] | 94 nM
C#Cc1ccccc1-c1cc(C(=O)N[C@@H](CCN2CCCCC2)CC(=O)NC2CCC2)nn1C1CCCC1 [compound 438, (3S)-N-cyclobutyl-3-{[1-cyclopentyl-5-(2-ethynylphenyl)-1H-pyrazol-3-yl]formamido}-5-(piperidin-1-yl)pentanamide] | 290 nM
O=C(O)C[C@H](CN1CCC(F)(F)C1)NC(=O)c1cc(-c2ccccc2C(F)(F)F)n(C2CCCC2)n1 [compound 518, (3R)-3-({1-cyclopentyl-5-[2-(trifluoromethyl)phenyl]-1H-pyrazol-3-yl}formamido)-4-(3,3-difluoropyrrolidin-1-yl)butanoic acid] | > 10000 nM
O=C(O)C[C@H](CCN1C[C@@H](F)[C@@H](F)C1)NC(=O)c1cc(-c2ccccc2C(F)(F)F)n(C2CCCC2)n1 [compound 581, (3S)-3-({1-cyclopentyl-5-[2-(trifluoromethyl)phenyl]-1H-pyrazol-3-yl}formamido)-5-[(3R,4S)-3,4-difluoropyrrolidin-1-yl]pentanoic acid] | 215 nM
C[C@H](C(=O)O)[C@H](CCN1CCCC(F)(F)C1)NC(=O)c1cc(-c2ccccc2C(F)(F)F)n(C2CCCC2)n1 [compound 596, (2S,3S)-3-({1-cyclopentyl-5-[2-(trifluoromethyl)phenyl]-1H-pyrazol-3-yl}formamido)-5-(3,3-difluoropiperidin-1-yl)-2-methylpentanoic acid] | 88 nM
O=C(O)C[C@H](CCN1CCC(C(F)(F)F)C1)NC(=O)c1cc(-c2ccccc2C(F)(F)F)n(C2CCCC2)n1 (stereo partly drawn) [compound 578, (3S)-3-({1-cyclopentyl-5-[2-(trifluoromethyl)phenyl]-1H-pyrazol-3-yl}formamido)-5-[3-(trifluoromethyl)pyrrolidin-1-yl]pentanoic acid] | 78 nM
O=C(O)C[C@H](CCN1CCC[C@@H](F)C1)NC(=O)c1cc(-c2ccccc2C(F)(F)F)n(C2CCCC2)n1 [compound 584, (3S)-3-({1-cyclopentyl-5-[2-(trifluoromethyl)phenyl]-1H-pyrazol-3-yl}formamido)-5-[(3R)-3-fluoropiperidin-1-yl]pentanoic acid] | 184 nM
CC(c1nnn[nH]1)[C@H](CCN1CC2C(C1)C2(F)F)NC(=O)c1cc(-c2ccccc2C(F)(F)F)n(C2CCCC2)n1 (stereo partly drawn) [compound 637, 1-cyclopentyl-N-[(3S)-1-{6,6-difluoro-3-azabicyclo[3.1.0]hexan-3-yl}-4-(1H-1,2,3,4-tetrazol-5-yl)pentan-3-yl]-5-[2-(trifluoromethyl)phenyl]-1H-pyrazole-3-carboxamide] | 21 nM
CC1(C)CC(=O)CN1CC[C@@H](CC(=O)O)NC(=O)c1cc(-c2ccccc2C(F)(F)F)n(C2CCCC2)n1 [compound 608, (3S)-3-({1-cyclopentyl-5-[2-(trifluoromethyl)phenyl]-1H-pyrazol-3-yl}formamido)-5-(2,2-dimethyl-4-oxopyrrolidin-1-yl)pentanoic acid] | 1070 nM
O=C(O)C[C@H](CCc1ccc(F)cc1)NC(=O)c1cc(-c2ccccc2C(F)(F)F)n(C2CCCC2)n1 [compound 463] | 1240 nM
O=C(C[C@H](CCN1CCCC(F)(F)C1)NC(=O)c1cc(-c2ccccc2C(F)(F)F)n(C2CCCC2)n1)Nc1nccs1 [compound 426, (3S)-3-({1-cyclopentyl-5-[2-(trifluoromethyl)phenyl]-1H-pyrazol-3-yl}formamido)-5-(3,3-difluoropiperidin-1-yl)-N-(1,3-thiazol-2-yl)pentanamide] | 10.6 nM
CN(CC[C@@H](CC(=O)NC1CCC1)NC(=O)c1cc(-c2ccccc2C(F)(F)F)n(C2CCCC2)n1)C1CCCC1 [compound 490, (3S)-N-cyclobutyl-5-[cyc1opentyl(methyl)amino]-3-({1-cyclopentyl-5-[2(trifluoromethyl)phenyl]-1H-pyrazol-3-yl}formamido)pentanamide] | 10.3 nM
CC(C[C@@H](CC(=O)O)NC(=O)c1cc(-c2ccccc2C(F)(F)F)n(C2CCCC2)n1)N1CCC(F)(F)C1 (stereo partly drawn) [compound 567, (3S)-3-({1-cyclopentyl-5-[2-(trifluoromethyl)phenyl]-1H-pyrazol-3-yl}formamido)-5-(3,3-difluoropyrrolidin-1-yl)hexanoic acid] | 648 nM
O=C(C[C@H](CCN1CCCC(F)(F)C1)NC(=O)c1cc(-c2ccncc2Cl)n(C2CCCC2)n1)NC1CCC1 [compound 457, (3S)-3-{[5-(3-chloropyridin-4-yl)-1-cyclopentyl-1H-pyrazol-3-yl]formamidol}-N-cyclobutyl-5-(3,3-difluoropiperidin-1-yl)pentanamide] | 1320 nM
COc1cccc(OC)c1-c1cc(C(=O)N[C@@H](/C=C/c2ccc(F)cc2)CC(=O)NC2CCC2)nn1C1CCCC1 [compound 415, (3R,4E)-N-cyclobutyl-3-{[1-cyclopentyl-5-(2,6-dimethoxyphenyl)-1H-pyrazol-3-yl]formamido}-5-(4-fluorophenyl)pent-4-enamide] | 292 nM
O=C(C[C@H](CCN1CCCCC1)NC(=O)c1cc(-c2ccccc2Cl)n(C2CCCC2)n1)NC1CCC1 [compound 407, (3S)-3-{[5-(2-chlorophenyl)-1-cyclopentyl-1H-pyrazol-3-yl]formamido}-N-cyclobutyl-5-(piperidin-1-yl)pentanamide] | 162 nM
